Measurements published in PubChem BioAssay AID1963829 (Molecular Pharmacology Branch, DTP, NCI, 2024).

Test system: 935938-334-R-J1-PDC complex spheroid viability
Experiment: Anticancer human tumor 935938-334-R-J1-PDC patient-derived small intestine adenocarcinoma cell line growth inhibition [POLQ]
Details: for IC50: curve of first compound; for viability, T/C: stronger effect = lower value
Outline: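 Patient-derived tumour cells were co-cultured with HUVEC and mesenchymal stem cells as multicellular spheroids at 37 °C. They were treated with POLQ inhibitors (novobiocin, ART-558, RP6685) alone or combined with other agents. Top concentrations were at or near clinical Cmax (otherwise 10 microM; SN-38 at 1 microM), decreasing in half-log steps.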
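Also: spheroids exposed to drugs for seven days before viability read.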
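For viability, T/C in this document: 100% = DMSO vehicle control wells.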

Compound: COc1cccc(OCCCN)c1-c1cc(Nc2cnc(C#N)cn2)n[nH]1 + Nc1ccc(C#CCN(C(=O)Cc2ncc(C(F)(F)F)cc2C(F)(F)F)c2ccc(F)cc2)nn1
- IC50 (second compound 0.0316 µM): 36.6 nM
- IC50 (second compound 0.1 µM): 61.6 nM
- IC50 (second compound 0.316 µM): 31.7 nM
- IC50 (second compound 1 µM): 38.8 nM
- IC50 (second compound 3.16 µM): 54.9 nM
- IC50 (second compound 10 µM): 45.5 nM
- viability, T/C (second compound 0.0316 µM, first compound 0.00316 µM): 95.1%
- viability, T/C (second compound 0.0316 µM, first compound 0.01 µM): 122%
- viability, T/C (second compound 0.0316 µM, first compound 0.0316 µM): 54.7%
- viability, T/C (second compound 0.0316 µM, first compound 0.1 µM): 34.4%
- viability, T/C (second compound 0.0316 µM, first compound 0.316 µM): 10.4%
- viability, T/C (second compound 0.0316 µM, first compound 1 µM): 7.92%
- viability, T/C (second compound 0.1 µM, first compound 0.00316 µM): 111%
- viability, T/C (second compound 0.1 µM, first compound 0.01 µM): 99.2%
- viability, T/C (second compound 0.1 µM, first compound 0.0316 µM): 72.4%
- viability, T/C (second compound 0.1 µM, first compound 0.1 µM): 35.2%
- viability, T/C (second compound 0.1 µM, first compound 0.316 µM): 9.41%
- viability, T/C (second compound 0.1 µM, first compound 1 µM): 8.83%
- viability, T/C (second compound 0.316 µM, first compound 0.00316 µM): 102%
- viability, T/C (second compound 0.316 µM, first compound 0.01 µM): 92.4%
- viability, T/C (second compound 0.316 µM, first compound 0.0316 µM): 44.1%
- viability, T/C (second compound 0.316 µM, first compound 0.1 µM): 28.3%
- viability, T/C (second compound 0.316 µM, first compound 0.316 µM): 8.42%
- viability, T/C (second compound 0.316 µM, first compound 1 µM): 8.2%
- viability, T/C (second compound 1 µM, first compound 0.00316 µM): 117%
- viability, T/C (second compound 1 µM, first compound 0.01 µM): 83.2%
- viability, T/C (second compound 1 µM, first compound 0.0316 µM): 62.1%
- viability, T/C (second compound 1 µM, first compound 0.1 µM): 23.2%
- viability, T/C (second compound 1 µM, first compound 0.316 µM): 10.4%
- viability, T/C (second compound 1 µM, first compound 1 µM): 7.61%
- viability, T/C (second compound 3.16 µM, first compound 0.00316 µM): 93.1%
- viability, T/C (second compound 3.16 µM, first compound 0.01 µM): 71%
- viability, T/C (second compound 3.16 µM, first compound 0.0316 µM): 76.5%
- viability, T/C (second compound 3.16 µM, first compound 0.1 µM): 21.5%
- viability, T/C (second compound 3.16 µM, first compound 0.316 µM): 10.1%
- viability, T/C (second compound 3.16 µM, first compound 1 µM): 8.73%
- viability, T/C (second compound 10 µM, first compound 0.00316 µM): 80.4%
- viability, T/C (second compound 10 µM, first compound 0.01 µM): 88.1%
- viability, T/C (second compound 10 µM, first compound 0.0316 µM): 66.1%
- viability, T/C (second compound 10 µM, first compound 0.1 µM): 15.1%
- viability, T/C (second compound 10 µM, first compound 0.316 µM): 11.3%
- viability, T/C (second compound 10 µM, first compound 1 µM): 12.5%
